Results as given in US7109380B2, “Cyclopentenedione antifungal compounds and methods for their use” (The University of Mississippi, priority 2004, dated 2006).
≈ marks a conversion by molar mass, not a printed value.

Columns and labels:
Type in all cases: cell-based
[1] = test system: M. intracellulare ATCC 23068; experiment: In vitro antibacterial assay (modified method of Franzblau, Alamar Blue); conditions: Mycobacterium intracellulare, ATCC23068, M. intracellulare ATCC 23068
Botrytis cinerea = experiment: 96-well microtiter fungal growth assay;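 further: percent relative to untreated positive growth controls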
Excerpt: (§1) Pathogen collection. Isolates of Colletotrichum acutatum Simmonds, Colletotrichum fragariae Brooks, and Colletotrichum gloeosporioides (Penz.) Penz. & Sacc. in Penz. were obtained from B. J. Smith, USDA, ARS, Small Fruit Research Station, Poplarville, Mass. Colletotrichum fragariae (isolate CF63), C. acutatum (isolate CAGoff), and C. gloeosporioides (isolate CG162) were used for all pathogen and bioautography studies. Isolate CF63 is one of the most virulent isolates at infecting strawberry plants and inducing both crown and fruit rot (Smith and Black, 1990). CF63, CAGoff, and CG162 were used as standard test isolates because of our extensive knowledge of these isolates and their known fungicide sensitivity profiles in both bioautography and microtiter formats. The three Colletotrichum species were isolated from strawberry (Fragaria xananassa Duchesne). Botrytis cinerea Pers.:Fr, was isolated from commercial grape (Vitis vinifera L.) and Fusarium oxysporum Schlechtend:Fr from orchid (Cynoches sp.) by David E. Wedge, USDA ARS Natural Products Utilization Research Unit. Phomopsis viticola (Sacc.) and P. obscurans (Ellis & Everh.) Sutton were from Mike A. Ellis, Ohio State University, Wooster, Ohio. Fungi were grown on potato-dextrose agar (PDA, Difco, Detroit Mich.) in 9 cm petri dishes and incubated in a growth chamber at 24±2° C. and under cool-white fluorescent lights ([…]·m^−2·sec^−1 light) with 12-h photoperiod.
(§2) Inoculum preparation. Conidia were harvested from 7–10 day-old cultures by flooding plates with 5 mL of sterile distilled water and dislodging conidia by softly brushing the colonies with an L-shaped glass rod. Conidial suspensions were filtered through sterile miracloth (Calbiochem-Novabiochem Corp., La Jolla Calif.) to remove mycelia. Conidia concentrations were determined photometrically, from a standard curve based on the absorbance at 625 nm and suspensions were then adjusted with sterile distilled water to a concentration of 1.0×10^6 conidia/mL.
(§3) Microtiter assay. A standardized 96-well microtiter plate assay developed for discovery of natural product fungicidal agents. A 96-well microtiter assay was used to determine sensitivity of B. cinerea, C. acutatum, C. fragariae, C. gloeosporioides, F. oxysporum, Phomopsis viticola, and P. obscurans to the various antifungal agents in comparison with known fungicidal standards. Vinclozolin, captan, and thiabendazole, which represent three different modes of action, were used as standards in this experiment. Each fungus was challenged in a dose-response format using test compounds where the final treatment concentrations were 0.3, 3.0 and 30.0 μM. Microtiter plates (Nunc MicroWell, untreated; Roskilde, Denmark) were covered with a plastic lid and incubated in a growth chamber at 24±1 C and 12 h photoperiod under 60±5 μmol light. Growth was then evaluated by measuring absorbance of each well at 620 nm using a microplate photometer (Packard Spectra Count, Packard Instrument Co., Downers Grove, Ill.).
(§4) Microbioassay Experimental Design. Chemical sensitivity of each fungus 96-well microtiter assay is used to determine sensitivity of B. cinerea, C. acutatum, C. fragariae, C. gloeosporioides, F. oxysporum, Phomopsis viticola, and P. obscurans. Each chemical is evaluated in duplicate at each dose (0.3, 3.0 and 30.0 μM) and repeated twice in time. Sixteen wells containing broth and inoculum serves as positive controls, eight wells containing solvent at the appropriate concentration and broth without inoculum are used as negative controls. Mean absorbance values and standard errors is used to evaluate fungal growth at 48 hrs and 72 hrs except for P. obscurans and P. viticola the data are recorded at 120 hrs. […] Treatments are arranged as a split-plot design replicated twice in time. Whole-plots were fungal isolates and sub-plots are chemicals. Each dose level and response time is analyzed separately. […]

Colletotrichum acutatum = experiment: 96-well microtiter fungal growth assay;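 further: percent relative to untreated positive growth controls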
Excerpt: as §1, §2, §3, §4

Colletotrichum fragariae = experiment: 96-well microtiter fungal growth assay;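 further: percent relative to untreated positive growth controls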
Excerpt: as §1, §2, §3, §4

[2] = test system: Colletotrichum gloeosporioides; experiment: 96-well microtiter fungal growth assay;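 further: percent relative to untreated positive growth controls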
Excerpt: as §1, §2, §3, §4

Fusarium oxysporum = experiment: 96-well microtiter fungal growth assay;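 further: percent relative to untreated positive growth controls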
Excerpt: as §1, §2, §3, §4

Phomopsis obscurans = experiment: 96-well microtiter fungal growth assay
Excerpt: as §1, §2, §3
(§5) Microbioassay Experimental Design. Chemical sensitivity of each fungus 96-well microtiter assay is used to determine sensitivity of B. cinerea, C. acutatum, C. fragariae, C. gloeosporioides, F. oxysporum, Phomopsis viticola, and P. obscurans. Each chemical is evaluated in duplicate at each dose (0.3, 3.0 and 30.0 μM) and repeated twice in time. Sixteen wells containing broth and inoculum serves as positive controls, eight wells containing solvent at the appropriate concentration and broth without inoculum are used as negative controls. […] Treatments are arranged as a split-plot design replicated twice in time. Whole-plots were fungal isolates and sub-plots are chemicals. Each dose level and response time is analyzed separately. The SAS system's analysis of variance procedure (Statistical Analysis System, Cary, N.C.) is used to identify significant factors and Fisher's protected LSD is used to separate means.

Phomopsis viticola = experiment: 96-well microtiter fungal growth assay;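 on Mean percent fungal growth inhibition of Phomopsis viticola: percent relative to untreated positive growth controls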
Excerpt: as §1, §2, §3, §5

O=C(O)c1cn(C2CC2)c2cc(N3CCNCC3)c(F)cc2c1=O [CIP, ciprofloxacin, reference compound]
MIC [1]: 0.63 µg/mL (≈ 1.9 µM) | IC50 ([1]; read-out: IC50 (50% inhibitory concentration)): 0.3 µg/mL (≈ 0.905 µM) | MBC ([1]; read-out: MBC (Minimum Bactericidal Concentration)): 1.25 µg/mL (≈ 3.77 µM)

O=C1C2CC=CCC2C(=O)N1SC(Cl)(Cl)Cl (stereo not drawn) [Captan]
Mean percent fungal growth inhibition of Botrytis cinerea (Botrytis cinerea; 0.3 μm, 48 hrs): 3.1 ± 26.7% | Mean percent fungal growth inhibition of Botrytis cinerea (Botrytis cinerea; 0.3 μm, 72 hrs): 3.4 ± 5.8% | Mean percent fungal growth inhibition of Botrytis cinerea (Botrytis cinerea; 3.0 μm, 48 hrs): −45.9 ± 22.2% | Mean percent fungal growth inhibition of Botrytis cinerea (Botrytis cinerea; 3.0 μm, 72 hrs): −46.1 ± 5.6% | Mean percent fungal growth inhibition of Botrytis cinerea (Botrytis cinerea; 30 μm, 48 hrs): −76.4 ± 13.4% | Mean percent fungal growth inhibition of Botrytis cinerea (Botrytis cinerea; 30 μm, 72 hrs): −98.7 ± 0.9% | Mean percent fungal growth inhibition of Colletotrichum acutatum (Colletotrichum acutatum; 0.3 μm, 48 hrs): 42.5 ± 8.8% | Mean percent fungal growth inhibition of Colletotrichum acutatum (Colletotrichum acutatum; 0.3 μm, 72 hrs): 35.4 ± 6.1% | Mean percent fungal growth inhibition of Colletotrichum acutatum (Colletotrichum acutatum; 3.0 μm, 48 hrs): −98.0 ± 0.9% | Mean percent fungal growth inhibition of Colletotrichum acutatum (Colletotrichum acutatum; 3.0 μm, 72 hrs): −94.1 ± 3.0% | Mean percent fungal growth inhibition of Colletotrichum acutatum (Colletotrichum acutatum; 30 μm, 48 hrs): −98.6 ± 0.5% | Mean percent fungal growth inhibition of Colletotrichum acutatum (Colletotrichum acutatum; 30 μm, 72 hrs): −99.7 ± 0.2% | Mean percent fungal growth inhibition of Colletotrichum fragariae (Colletotrichum fragariae; 0.3 μm, 48 hrs): 18.1 ± 2.7% | Mean percent fungal growth inhibition of Colletotrichum fragariae (Colletotrichum fragariae; 0.3 μm, 72 hrs): −17.5 ± 15.6% | Mean percent fungal growth inhibition of Colletotrichum fragariae (Colletotrichum fragariae; 3.0 μm, 48 hrs): −96.2 ± 1.0% | Mean percent fungal growth inhibition of Colletotrichum fragariae (Colletotrichum fragariae; 3.0 μm, 72 hrs): −74.0 ± 9.3% | Mean percent fungal growth inhibition of Colletotrichum fragariae (Colletotrichum fragariae; 30 μm, 48 hrs): −99.7 ± 1.0% | Mean percent fungal growth inhibition of Colletotrichum fragariae (Colletotrichum fragariae; 30 μm, 72 hrs): −91.4 ± 5.2% | Mean percent fungal growth inhibition of Colletotrichum gloeosporoides ([2]; 0.3 μm, 48 hrs): 31.5 ± 7.3% | Mean percent fungal growth inhibition of Colletotrichum gloeosporoides ([2]; 0.3 μm, 72 hrs): 38.6 ± 4.5% | Mean percent fungal growth inhibition of Colletotrichum gloeosporoides ([2]; 3.0 μm, 48 hrs): −97.3 ± 1.5% | Mean percent fungal growth inhibition of Colletotrichum gloeosporoides ([2]; 3.0 μm, 72 hrs): −95.2 ± 1.9% | Mean percent fungal growth inhibition of Colletotrichum gloeosporoides ([2]; 30 μm, 48 hrs): −98.4 ± 0.5% | Mean percent fungal growth inhibition of Colletotrichum gloeosporoides ([2]; 30 μm, 72 hrs): −98.6 ± 1.7% | Mean percent fungal growth inhibition of Fusarium oxysporum (Fusarium oxysporum; 0.3 μm, 48 hrs): 13.6 ± 3.5% | Mean percent fungal growth inhibition of Fusarium oxysporum (Fusarium oxysporum; 0.3 μm, 72 hrs): 12.0 ± 2.2% | Mean percent fungal growth inhibition of Fusarium oxysporum (Fusarium oxysporum; 3.0 μm, 48 hrs): −50.0 ± 2.8% | Mean percent fungal growth inhibition of Fusarium oxysporum (Fusarium oxysporum; 3.0 μm, 72 hrs): −5.4 ± 4.4% | Mean percent fungal growth inhibition of Fusarium oxysporum (Fusarium oxysporum; 30 μm, 48 hrs): −99.4 ± 0.3% | Mean percent fungal growth inhibition of Fusarium oxysporum (Fusarium oxysporum; 30 μm, 72 hrs): −99.5 ± 0.4% | Percent change in fungal growth vs control (negative = inhibition) (Phomopsis obscurans; 0.3 μm, 120 hrs): −37.3 ± 6.6% | Percent change in fungal growth vs control (negative = inhibition) (Phomopsis obscurans; 0.3 μm, 144 hrs): −30.9 ± 6.3% | Percent change in fungal growth vs control (negative = inhibition) (Phomopsis obscurans; 3.0 μm, 120 hrs): −96.0 ± 1.8% | Percent change in fungal growth vs control (negative = inhibition) (Phomopsis obscurans; 3.0 μm, 144 hrs): −98.3 ± 0.6% | Percent change in fungal growth vs control (negative = inhibition) (Phomopsis obscurans; 30 μm, 120 hrs): −100 ± 0.0% | Percent change in fungal growth vs control (negative = inhibition) (Phomopsis obscurans; 30 μm, 144 hrs): −99.6 ± 0.2% | Mean percent fungal growth inhibition of Phomopsis viticola (Phomopsis viticola; 0.3 μm, 120 hrs): −118.5 ± 198.7% | Mean percent fungal growth inhibition of Phomopsis viticola (Phomopsis viticola; 3.0 μm, 120 hrs): −99.8 ± 38.2% | Mean percent fungal growth inhibition of Phomopsis viticola (Phomopsis viticola; 3.0 μm, 144 hrs): −95.7 ± 26.0% | Mean percent fungal growth inhibition of Phomopsis viticola (Phomopsis viticola; 30 μm, 120 hrs): −100.0 ± 0.0% | Mean percent fungal growth inhibition of Phomopsis viticola (Phomopsis viticola; 30 μm, 144 hrs): −67.8 ± 21.5% | IC50 (Phomopsis viticola; Diaporthe ampelina, 72 h, read-out: IC50 (growth inhibition)): < 3.1 µM
